In patent publication US20030022812A1, “Treating pain by targeting hyperpolarization-activated, cyclic nucleotide-gated channels” (priority 2001, published 2003):
Entries after “also recorded” stand apart in the source; their conditions may differ.

Experiments:
SNL rats = experiment: Tactile allodynia (von Frey) in SNL (Chung) neuropathic pain model; type: in vivo, rat
Method: Preparation of SNL (spinal nerve ligation) model: All studies were conducted in keeping with the guidelines of the Institutional Animal Care Committees of the University of California, San Diego and RWJPRI. Male Harlan Sprague-Dawley rats, 100-150 g, were housed in cages with solid bottoms and sawdust bedding, with a 12/12 h reversed light cycle (lights on 2100-900), and allowed free access to food pellets and water. Animals were housed in groups of 2 after surgical interventions. A surgical neuropathy was created as follows, to create a model commonly referred to as the SNL, or spinal nerve ligation model, also commonly referred to as the Chung model. Under isoflurane/oxygen anesthesia, a dorsal midline incision was made from approximately L3-S2. Using a mixture of sharp and blunt dissection, the left L6/S1 posterior interarticular process was exposed and resected to permit adequate visualization of the L6 transverse process, which was gently removed. Careful teasing of the underlying fascia exposed the left L4 and L5 spinal nerves distal to their emergence from the intervertebral foramina. The nerves were gently separated, and the L5 and in some cases either the L4 (for in vitro electrophysiology recordings) or the L6 nerve firmly ligated with 6-0 silk suture material. The wound was then inspected for hemostasis and closed in two layers. Animals with thresholds greater than 4 g were considered unsuccessful preparations(Chaplan et al., (1994) Journal of Neuroscience Methods 53: 55-63).
Behavioral assessment: Behavioral signs of allodynia were documented as follows. Briefly, rats were transferred to a testing cage with a wire mesh bottom and allowed to acclimate for 10-15 minutes. […] Lifting of the paw was recorded as a positive response and the next lightest filament chosen for the next measurement. […]

[1] = system: spontaneous firing of Aβ and Aδ neurons; experiment: In vitro single fiber recording of spontaneous discharges in excised dorsal root/DRG/spinal nerve preparation from SNL rats; type: cell-based, rat

SMILES: CCN(c1ccccc1)c1cc(=NC)n(C)c(C)n1.Cl [ZD7288]
- efficacy of allodynia suppression (% MPE) (SNL rats; i.p.): 75.7+/−15.4%
- suppression of tactile allodynia (SNL rats; i.p. 1, 3, 10 mg/kg): blocked in a dose dependent manner; also recorded: suppressed the tactile allodynia
- untoward behavioral effects / motor function (SNL rats; i.p., up to 10 mg/kg): No untoward behavioral effects; also recorded: without overt adverse effects on behavior
- suppression of spontaneous (ectopic) discharges of Aβ fibers ([1]; 100 μM bath application for 5 min): complete suppression; also recorded: completely suppressed
- effect on spontaneous firing of Aδ fiber ([1]; 100 micromolar): attenuation of firing
- time to complete suppression of ectopic firing, Aβ fiber ([1]; 100 micromolar): 3 to 4 min
- conduction blockade of evoked action potentials ([1]; after application of ZD7288): no conduction blockade
